Assay results reported in ChEMBL document CHEMBL3856234, “Development of Multifunctional Pyrimidinylthiourea Derivatives as Potential Anti-Alzheimer Agents” (J Med Chem, 2016).
The source made the active and inactive calls. The rule behind the calls is not given here.

Experiments:
[1] = system: SH-SY5Y; assay: Neuroprotective activity in human SH-SY5Y cells assessed as protection against Cu2+ induced amyloid-beta (1 to 42) neurotoxicity by measuring increase in cell viability at compound:amyloid-beta (1 to 42):Cu2+ ratio of 2:1:1 after 24 hrs by MTT assay relative to control; assay type: functional, cell-based
[2] = Antioxidant activity assessed as inhibition of Cu2+-induced CCA […] to 7-hydroxy-CCA by measuring decrease in hydroxyl radical production at 10 uM in presence of ascorbate by fluorescence assay
[3] = Antioxidant activity assessed as trolox equivalent of AAPH radical scavenging activity preincubated for 10 mins followed by AAPH challenge measured every min for 180 mins by ORAC-FL assay; assay type: functional
[4] = Inhibition of cupric ion-induced aggregation of amyloid beta (1 to 42) (unknown origin) at 50 uM measured after 24 hrs by dot blot assay
[5] = system: Mus musculus; assay: Cognitive enhancing effect against scopolamine-induced memory deficit in ICR mouse assessed as reduction in escape latency at 200 mg/kg, po administered through gavage 1 hr before scopolamine-challenge measured after 20 mins by passageway water maze test; assay type: functional, organism-based
[6] = system: Mus musculus; assay: Cognitive enhancing effect against scopolamine-induced memory deficit in ICR mouse assessed as reduction in number of errors at 200 mg/kg, po administered through gavage 1 hr before scopolamine-challenge measured after 20 mins by passageway water maze test; assay type: functional, organism-based
[7] = species: Rattus norvegicus; assay: Selectivity index, ratio of IC50 for rat serum BuChE to IC50 for rat cortex AChE
[8] = Inhibition of cupric ion-induced aggregation of amyloid beta (1 to 42) (unknown origin) at compound:amyloid beta (1 to 42):Cu2+ ratio of 2:1:1 measured after 24 hrs by TEM analysis
[9] = species: Rattus norvegicus; assay: Inhibition of rat serum BuChE at 40 uM using butyrylthiocholine as substrate measured after 20 mins by Ellman's method relative to control
[10] = Ratio of drug level in brain hippocampus to plasma in ICR mouse at 200 mg/kg administered through oral gavage; assay type: ADME, organism-based; conditions: read-out: logBB (converted)
[11] = Drug uptake in ICR mouse brain cortex at 200 mg/kg administered through oral gavage measured after 1 hr by LC-MS/MS analysis; assay type: ADME, organism-based; conditions: read-out: Drug uptake
[12] = Solubility of the compound in water measured after 24 hrs by HPLC analysis; assay type: physicochemical
[13] = Drug uptake in ICR mouse brain hippocampus at 200 mg/kg administered through oral gavage measured after 1 hr by LC-MS/MS analysis; assay type: ADME, organism-based; conditions: read-out: Drug uptake
[14] = Plasma concentration in ICR mouse at 200 mg/kg administered through oral gavage measured after 1 hr by LC-MS/MS analysis; assay type: ADME, organism-based
[15] = Ratio of drug level in brain cortex to plasma in ICR mouse at 200 mg/kg administered through oral gavage; assay type: ADME, organism-based; conditions: read-out: logBB (converted)

SMILES | Activity [1] | inhibition [2] | Activity (umolequiv/umol) [3] | inhibition [4] | Activity [5] | Activity [6] | Ratio IC50 [7] | inhibition [8] | inhibition [9] [%] | Kp [10] | concentration at 1 h [11] [ng/g] | solubility at 24 h [12] [µg/mL] | concentration at 1 h [13] [ng/g] | concentration at 1 h [14] [ng/mL] | Kp [15]
CCCN(CCC)Cc1cn(-c2cc(NC(=S)NCC)ncn2)cn1 | Active | Active | 1.28 | Active | Active | Active | > 196 | Active | 32.8 | – | – | – | – | – | –
CCCN(CCC)Cc1cn(-c2cc(NC(=S)NCC)ncn2)cn1.Cl | – | – | – | – | – | – | – | – | – | 0.324 | 296 | 3380 | 579 | 1740 | 0.141
